Laboratory results: US20240041764A1, “Sustained-Release Oral Fosamprenavir Formulation for Treatment of Reflux” (The Medical College of Wisconsin, Inc., priority 2022, published 2024)
Entries after “also recorded” stand apart in the source; their conditions may differ.

Tests used:
[1] = test system: LPR mouse model (pepsin-mediated laryngeal damage); experiment: in vivo LPR mouse model: mechanical injury plus laryngeal pepsin instillation, H&E histology; conditions: for protection against pepsin-mediated laryngeal damage (histology): 0.3 mg/ml pepsin pH7, 4 weeks
From the text: Three replicate animals per treatment condition were anticipated to suffice for verification of reproducibility in each experiment without excessive use of animal life. The three mice were randomly allocated to treatment groups. No data were excluded from analysis.
Six-week-old female Jackson A/J mice (Jackson Laboratory, Bar Harbor, ME) were fed D-62 powdered Wattenberg diet, 2 g/mouse/day^95 and allowed to acclimate for one week upon arrival prior to experiments. In accord with previously established methods for modeling aerodigestive tract damage attributed to GERD and LPR,^1,95-99 mechanical injury applied during the first two weeks of a four-week treatment course was used to predispose the laryngeal mucosa to chemical injury by pepsin/acid applied throughout the four weeks. […] Briefly, anesthetized mice were suspended by upper teeth on a slanted board under an operating microscope.
In a preliminary experiment to validate the LPR mouse model (i.e. laryngeal damage by pepsin at neutral and acidic pH), 20 μl saline (solvent control) or 0.3 mg/ml pepsin at pH7.0 or 4.0 were provided to mice (n=3) by laryngeal instillation at 24, 48, and 72 hours after mechanical injury during weeks 1 and 2 (FIG. 6); laryngeal instillation without wounding (3 days/week) continued during weeks 3 and 4. […] Mice were sacrificed at conclusion of the fourth week.
To test the protective effect of HIV protease inhibitors on pepsin-mediated damage in vivo, inhibitors were delivered by aerosol or gavage concurrently with wounding (days 2, 8) and solvent/pepsin instillation (days 3-5, 9-11, 16-18 and 23-25). Aerosol or gavage was provided on days 1-5, 8-12, 15-19, and 22-25, and mice sacrificed day 26. Mice were anesthetized with isoflurane (3% in 2.5LPM, 3-5 minutes prior to procedures) as opposed to Avertin due to frequency. […] Aerosol was generated as described^100. Briefly, a 10 ml suspension of drug in ethanol was placed in the baffle, such that the concentration would remain constant at the equilibrium solubility. Droplets of ethanol containing dissolved drug were generated by an ultrasonic atomizer (nominal frequency 1.7 MHz) and entrained by air at a flow rate of 0.5 LPM with a custom-built glass baffle (UMN Department of Chemistry Glass Shop). The aerosol cloud was then passed through a cylindrical drying column containing an annular ring of charcoal. The ethanol was removed and the emanating dry aerosol particles of pure drug were then directed into the exposure chamber. The mass deposited on filters was measured gravimetrically and total output rate (mg/min) was determined. The aerosol concentration (mass/volume of air) was calculated by dividing the total output rate by the air flow rate (0.5 LPM). The inhaled mass of drug (Minh) for each mouse was defined as Minh=[Aerosol]*RMV*t, where Aerosol is the aerosol concentration of drug, RMV is the respiratory minute volume of the mice (0.025 L/min), and t is the aerosol exposure time. […] Actual mass deposited was not determined but anticipated to be 10% of inhaled mass (the deposition fraction of […] aerosol particles in mice).
Tissues were collected, fixed in paraformaldehyde, embedded in paraffin and 4 um sections stained with hematoxylin and eosin (H&E) via automated stainer. Slides were reviewed by a board-certified pathologist (JM) blinded to treatment groups.

[2] = mice; cited from earlier work
[3] = prodrug relative to amprenavir; cited from earlier work
[4] = in vivo; cited from earlier work
[5] = solubility when preparing co-crystallization solutions; format: physicochemical; conditions: saturated solution in DMSO for co-crystallization; CryoSol SM2 chosen instead
Method: Supernatant of saturated saquinivar solution in SM2 was combined with pepsin at 5% f.c. (v/v). Crystallization conditions were optimized by screening 200 mg/ml pepsin in the Salt RX screen (Hampton Research, Viejo, CA). […] Diffraction quality crystals (triangular bi-pyramids, approximately 200×100×100 μm) formed after 2-7 days from hanging drops of 2 ul pepsin (180-210 mg/ml) and 1 ul microseed solution serially diluted 10-100× above 3-4M ammonium chloride and 0.1M sodium acetate trihydrate pH4.6. Crystals were cryoprotected by 30% glucose, 5M ammonium chloride and 0.1 M sodium acetate trihydrate pH4.6 and plunged in liquid nitrogen. Co-crystallization with saquinavir was performed in 0.1M acetic acid rather than sodium acetate trihydrate as this permitted large crystal formation without a microseed; crystals were cryoprotected by 30% w/v glucose, 5M ammonium chloride and 0.1 M sodium acetate trihydrate pH 4.6 and plunged in liquid nitrogen.

porcine pepsin A = target: T1, porcine pepsin A (Sus scrofa, UniProt P00791); experiment: competitive binding assay, fluorescence polarization with pepstatin-Alexa647; conditions: 100 nM probe, 0.03 U/ul porcine pepsin A, 37.5% DMSO, 0.1 M HCl pH 1
T1 construct: purchased Worthington Biochemical Corporation
Method: To examine whether HIV protease inhibitors bound and inhibited pepsin, we developed assays based on fluorescence polarization which measures size-dependent molecular rotation thereby permitting detection of degradation, association and dissociation events^80. A competitive binding assay was designed employing pepstatin, an inhibitor of sub-nanomolar affinity^81. Pepstatin-Alexa647 was synthesized by dissolving 1 mg pepstatin A (Sigma-Aldrich) in a 50:50 mixture of dimethylformamide (DMF) and dimethylsulfoxide (DMS) followed by the addition of N,N,N′,N′-Tetramethyl-O—(N-succinimidyl)uronium tetrafluoroborate (0.6 mg) and trimethylamine (10 μL) DMF. The mixture was stirred for 1 hour, after which 1 mg Alexa Fluor 647 Cadaverine, Disodium Salt (ThermoFisher Scientific) was added. After 2 hours, the solvents were evaporated under high vacuum (35° C.) and residue partially dissolved in 10% methanol and transferred onto a C18 cartridge (Waters Corporation, Milford, MA). Increasing percentages of methanol were used for the elution. Pepstatin-Alexa647 eluted at 45% methanol. An enzymatic inhibition assay was designed using casein substrate.^82 Bovine alpha casein (Sigma-Aldrich, St. Louis, MO) was labeled with Alexa Fluor 647 Carboxylic Acid, Succinimidyl Ester (ThermoFisher Scientific, Waltham, MA) as described.^82 Briefly, the two were combined at 2.5 ug/mg label to protein ratio in 0.1M sodium bicarbonate for 15 minutes and labeled casein was separated from unbound label in a Sephadex G-25 (Sigma-Aldrich) column comprised of 90×5 mm packed beads in a glass Pasteur pipette, eluted with dPBS pH7.4 (ThermoFisher Scientific). The fast-moving band (casein-bound fluorophore) was collected in ˜0.4 ml volume. […]
(§1) Assays were optimized using ranges of 0.3-1000 μM unlabeled pepstatin, 100-500 nM pepstatin-Alexa647 or casein-Alexa647 probe, 0.003-3 U/μl porcine pepsin (Worthington Biochemical Corporation, Lakewood, NJ), and 5-37.5% DMSO (HIV protease inhibitor diluent) in 0.1 M HCl, pH 1 with 0.01% v/v Tween-20 in 20 μl volumes in 384-well black optical plates (Nunc, Roskilde, DK) and read on a BioTek Cytation 5 (BioTek Instruments, Winooski, VT) with far red FP filter cube (excitation/emission 620/680 nm). […] Assays were performed twice with triplicate reactions read for five minutes and mean mP plotted against probe concentration (binding assay) or read at <2 minutes intervals over 30 minutes with mean mP of plotted over time (activity assay). Half maximal inhibitory concentration (IC50) of inhibitors were calculated from kinetic traces analyzed using an online tool (https://icekat.herokuapp.com/icekat)^83. mP was normalized to blank (absent inhibitor) to derive percent bound or activity.

porcine pepsin = target: T2, porcine pepsin (Sus scrofa, UniProt P00791); experiment: peptic activity assay, fluorescence polarization with casein-Alexa647; format: biochemical
T2 construct: purchased Worthington Biochemical Corporation
Method: To examine whether HIV protease inhibitors bound and inhibited pepsin, we developed assays based on fluorescence polarization which measures size-dependent molecular rotation thereby permitting detection of degradation, association and dissociation events^80. A competitive binding assay was designed employing pepstatin, an inhibitor of sub-nanomolar affinity^81. Pepstatin-Alexa647 was synthesized by dissolving 1 mg pepstatin A (Sigma-Aldrich) in a 50:50 mixture of dimethylformamide (DMF) and dimethylsulfoxide (DMS) followed by the addition of N,N,N′,N′-Tetramethyl-O—(N-succinimidyl)uronium tetrafluoroborate (0.6 mg) and trimethylamine (10 μL) DMF. The mixture was stirred for 1 hour, after which 1 mg Alexa Fluor 647 Cadaverine, Disodium Salt (ThermoFisher Scientific) was added. After 2 hours, the solvents were evaporated under high vacuum (35° C.) and residue partially dissolved in 10% methanol and transferred onto a C18 cartridge (Waters Corporation, Milford, MA). Increasing percentages of methanol were used for the elution. […] An enzymatic inhibition assay was designed using casein substrate.^82 Bovine alpha casein (Sigma-Aldrich, St. Louis, MO) was labeled with Alexa Fluor 647 Carboxylic Acid, Succinimidyl Ester (ThermoFisher Scientific, Waltham, MA) as described.^82 Briefly, the two were combined at 2.5 ug/mg label to protein ratio in 0.1M sodium bicarbonate for 15 minutes and labeled casein was separated from unbound label in a Sephadex G-25 (Sigma-Aldrich) column comprised of 90×5 mm packed beads in a glass Pasteur pipette, eluted with dPBS pH7.4 (ThermoFisher Scientific). The fast-moving band (casein-bound fluorophore) was collected in ˜0.4 ml volume. Concentration of resultant probe (casein-Alexa647 in PBS-azide) was estimated via spectrophotometry using Beer's law (Implen Nanophotometer, Implen, Inc. Westlake Village, CA).
as §1, with “nm). Unlabeled pepstatin dose-response curves were used to ensure that the assays were responsive to pepsin inhibition.” for “nm).”

T2 sequence (P00791 60-385): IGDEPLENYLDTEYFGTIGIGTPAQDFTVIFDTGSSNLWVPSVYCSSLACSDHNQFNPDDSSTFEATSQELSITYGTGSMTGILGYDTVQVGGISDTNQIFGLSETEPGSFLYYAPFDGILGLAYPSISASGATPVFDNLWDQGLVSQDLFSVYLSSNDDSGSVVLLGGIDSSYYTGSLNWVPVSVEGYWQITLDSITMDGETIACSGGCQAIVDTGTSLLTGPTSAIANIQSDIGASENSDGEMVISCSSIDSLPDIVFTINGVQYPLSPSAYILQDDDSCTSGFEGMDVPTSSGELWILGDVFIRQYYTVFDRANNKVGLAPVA
T1 sequence (P00791 60-385): as above

Structure (SMILES) | laryngeal histology, drug with saline (solvent), no pepsin ([1]; aerosol) | protection against pepsin-mediated laryngeal damage (histology) ([1]; aerosol, inhaled mass 0.93 mg/kg/day fosamprenavir, 12 mg/kg/day darunavir) | laryngeal histology, drug with saline (solvent), no pepsin ([1]; gavage) | protection against pepsin-mediated laryngeal damage (histology) ([1]; gavage, 20 mg/kg/day fosamprenavir (Lexiva), 8.6 mg/kg/day darunavir (Prezista)) | protection against pepsin-mediated laryngeal damage (histology) ([1]; gavage, 20 mg/kg/day fosamprenavir (Lexiva), 8.6 mg/kg/day darunavir (Prezista), listed as Fosamprenavir) | protection against pepsin-mediated laryngeal damage (histology) ([1]; gavage, 20 mg/kg/day fosamprenavir (Lexiva), 8.6 mg/kg/day darunavir (Prezista), listed as Lexiva) | laryngeal histology, drug with saline (solvent), no pepsin ([1]; gavage, listed as Lexiva) | pharmacokinetics [2] | bioavailability [3] | tolerability [4] | solubility [5] | bound pepsin (competitive binding) (porcine pepsin A) | inhibited pepsin (peptic activity) (porcine pepsin; 200 nM probe, 0.01 U/μL pepsin, 5% DMSO, 0.1 M HCl pH 1) | IC50 for pepsin (porcine pepsin; in vitro binding and inhibition assays, IC50 from kinetic traces) | side effects [4]
CC(C)CN(C[C@@H](OP(=O)(O)O)[C@H](Cc1ccccc1)NC(=O)O[C@H]1CCOC1)S(=O)(=O)c1ccc(N)cc1 [fosamprenavir, [(3S)-oxolan-3-yl] N-[(2S,3R)-4-[(4-aminophenyl)sulfonyl-(2-methylpropyl)amino]-1-phenyl-3-phosphonooxybutan-2-yl]carbamate] | normal histology | prevented pepsin-mediated laryngeal injury; also recorded: protected against pepsin-mediated laryngeal damage | normal histology | prevented pepsin-mediated laryngeal damage | prevented pepsin-mediated laryngeal damage; also recorded: protected against pepsin-mediated laryngeal damage | prevents pepsin-mediated airway epithelial damage | Normal-appearing respiratory epithelium | excellent pharmacokinetics | improved bioavailability | favorable tolerability | – | – | – | – | –
CC(C)(C)NC(=O)[C@@H]1C[C@@H]2CCCC[C@@H]2CN1C[C@@H](O)[C@H](Cc1ccccc1)NC(=O)[C@H](CC(N)=O)NC(=O)c1ccc2ccccc2n1 [saquinavir, (2S)-N-[(2S,3R)-4-[(3S,4aS,8aS)-3-(tert-butylcarbamoyl)-3,4,4a,5,6,7,8,8a-octahydro-1H-isoquinolin-2-yl]-3-hydroxy-1-phenylbutan-2-yl]-2-(quinoline-2-carbonylamino)butanediamide] | – | – | – | – | – | – | – | – | – | – | poor solubility | low micromolar | low micromolar | low micromolar range | QT prolongation, heart block, high blood lipids and liver problems
